Molecules are shown by their SMILES.

One experiment deals with T1, Dimer of Gag-Pol polyprotein [489-587] (Human immunodeficiency virus 1, UniProt P12497).
T1 construct: 489-587
As to the kind of experiment: Protease Inhibition Assay. As to conditions: pH 4.7; 37 °C. Here is the method:
For determination of IC50 values, HIV-1 protease was added to assay buffer containing inhibitor and the substrate (H-His-Lys-Ala-Arg-Val-Leu- (p-NO2) Phe-Glu-Ala-norleucine-Ser-NH2). The Leu- (p-NO2) Phe bond of the substrate was cleaved by the enzyme, and the substrate and products were separated by reversed-phase HPLC. Absorbance was measured at 220 nm, peak areas were determined, and percentage conversion to product was calculated.
As to `O=c1oc(-c2ccccc2)cc(O)c1Sc1ccccc1`, half-maximal inhibition (IC50) was put at 3000 nM.

Consider `O=C(CCCCC1CCCCC1)OCC(O)C1OC(=O)C(O)C1=O` (stereo unspecified) [2-(3,4-dihydroxy-5-oxo-2,5-dihydrofuran-2-yl)-2-hydroxyethyl 5-cyclohexylpentanoate], for which 29000 nM corresponded to half-maximal inhibition (IC50).

Compound `O=C(O)c1cc(-c2ccc(Cl)cc2)nc2cc(O)ccc12` [2-(4-chlorophenyl)-7-hydroxyquinoline-4-carboxylic acid] returned an IC50 of 6900 nM.

As to `O=C(O)COc1ccc(-c2cc(O)c(SCCc3ccccc3)c(=O)o2)cc1` [2-(4-{4-hydroxy-2-oxo-3-[(2-phenylethyl)sulfanyl]-2H-pyran-6-yl}phenoxy)acetic acid], the IC50 is 160 nM.

The compound `O=C(CCc1ccc(Br)cc1)c1ccc(CC(=O)c2ccccc2-c2ccccc2C(=O)O)cc1` [2-[2-(2-{4-[3-(4-bromophenyl)propanoyl]phenyl}acetyl)phenyl]benzoic acid] yielded an IC50 of 19000 nM.

For the compound `O=C(O)c1cc(O)c(O)cc1C(=O)c1cc(Cl)ccc1Cl` [2-[(2,5-dichlorophenyl)carbonyl]-4,5-dihydroxybenzoic acid], half-maximal inhibition (IC50) required 8100 nM.

The compound `O=c1oc(-c2ccccc2)cc(O)c1SCc1ccccc1` [3-(benzylsulfanyl)-4-hydroxy-6-phenyl-2H-pyran-2-one] came in with an IC50 of 1700 nM.

`Cc1cccc(-c2cc(O)c(Sc3ccccc3C(C)(C)C)c(=O)o2)c1` [3-[(2-tert-butylphenyl)sulfanyl]-4-hydroxy-6-(3-methylphenyl)-2H-pyran-2-one] displayed an IC50 of 7 nM.

On to `CC(C)(C)c1ccccc1Sc1c(O)cc(-c2ccccc2)oc1=O` [3-[(2-tert-butylphenyl)sulfanyl]-4-hydroxy-6-phenyl-2H-pyran-2-one], for which the IC50 is 17 nM.

`O=c1oc2ccccc2c(O)c1Cc1ccccc1` [3-benzyl-4-hydroxy-2H-chromen-2-one] gave an IC50 of 120000 nM.

`Cc1ccccc1Sc1c(O)cc(-c2ccccc2)oc1=O` [4-hydroxy-3-[(2-methylphenyl)sulfanyl]-6-phenyl-2H-pyran-2-one] gave an IC50 of 420 nM.

`O=c1oc(-c2ccc(O)cc2)cc(O)c1SCCc1ccccc1` [4-hydroxy-6-(4-hydroxyphenyl)-3-[(2-phenylethyl)sulfanyl]-2H-pyran-2-one] displayed an IC50 of 520 nM.

Regarding `O=c1oc(-c2ccccc2)cc(O)c1SCCc1ccccc1` [4-hydroxy-6-phenyl-3-[(2-phenylethyl)sulfanyl]-2H-pyran-2-one], the midpoint of inhibition, the IC50, lay at 1300 nM.

`CC(C)c1ccccc1Sc1c(O)cc(-c2ccccc2)oc1=O` [4-hydroxy-6-phenyl-3-{[2-(propan-2-yl)phenyl]sulfanyl}-2H-pyran-2-one] showed an IC50 of 37 nM.

For the compound `O=c1cc(Cc2cccc(Cl)c2)[nH][nH]1` [5-[(3-chlorophenyl)methyl]-2,3-dihydro-1H-pyrazol-3-one], 29000 nM corresponded to half-maximal inhibition (IC50).

Staying with this experiment, now noted: pH 6.2; 37 °C.
`CC(C)c1ccccc1Sc1c(O)cc(-c2ccccc2)oc1=O` [4-hydroxy-6-phenyl-3-{[2-(propan-2-yl)phenyl]sulfanyl}-2H-pyran-2-one] gave an IC50 of 690 nM.

What is called IC50 is the concentration needed to halve the response being measured.

(Values after BindingDB's records for doi:10.1016/0968-0896(96)00134-4 (Parke-Davis Pharmaceutical Research, 1996).)
